# PubChem BioAssay AID2060903 (Molecular Pharmacology Branch, DTP, NCI, 2025)
# Tested on: 377384-186-R-J1-PDC complex spheroid viability
# Experiment: Anticancer human tumor 377384-186-R-J1-PDC patient-derived pancreatic carcinoma cell line growth inhibition [RAS]
# Details: for viability, T/C: stronger effect = lower value
# How it was run: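 Multi-cell-type spheroids: tumor cells plus HUVEC endothelial cells and mesenchymal stem cells. RAS-pathway inhibitors were combined with targeted agents, each dosed in half-log steps down from clinical Cmax, or from 10 microM when Cmax was unknown.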
# [1] = curve of first compound, second compound 0.0316 µM
# [2] = curve of first compound, second compound 0.1 µM
# [3] = curve of first compound, second compound 0.316 µM
# [4] = curve of first compound, second compound 1 µM
# [5] = second compound 0.0316 µM, first compound 0.0316 µM
# [6] = second compound 0.0316 µM, first compound 0.1 µM
# [7] = second compound 0.0316 µM, first compound 0.316 µM
# [8] = second compound 0.0316 µM, first compound 1 µM
# [9] = second compound 0.1 µM, first compound 0.0316 µM
# [10] = second compound 0.1 µM, first compound 0.1 µM
# [11] = second compound 0.1 µM, first compound 0.316 µM
# [12] = second compound 0.1 µM, first compound 1 µM
# [13] = second compound 0.316 µM, first compound 0.0316 µM
# [14] = second compound 0.316 µM, first compound 0.1 µM
# [15] = second compound 0.316 µM, first compound 0.316 µM
# [16] = second compound 0.316 µM, first compound 1 µM
# [17] = second compound 1 µM, first compound 0.0316 µM
# [18] = second compound 1 µM, first compound 0.1 µM
# [19] = second compound 1 µM, first compound 0.316 µM
# [20] = second compound 1 µM, first compound 1 µM
# 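Note: spheroids exposed to compounds for seven days before readout.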
smiles,measurement,setting,value
C=CC(=O)N1CCN(c2nc(OCC3CCCN3C)nc3c(F)c(-c4nc(N)cc(C)c4C(F)(F)F)c(Cl)cc23)C(C)C1 (stereo unspecified) + C#Cc1c(F)ccc2cc(O)cc(-c3ncc4c(N5CC6CCC(C5)N6)nc(OCC56CCCN5CC(F)C6)nc4c3F)c12,IC50,[1],< 0.00316 µM
same,IC50,[2],< 0.00316 µM
same,IC50,[3],< 0.00316 µM
same,IC50,[4],< 0.00316 µM
same,IC50,"curve of first compound, second compound 3.16 µM",< 0.00316 µM
same,IC50,"curve of first compound, second compound 10 µM",< 0.00316 µM
same,"viability, T/C","second compound 0.0316 µM, first compound 0.00316 µM",24.6%
same,"viability, T/C","second compound 0.0316 µM, first compound 0.01 µM",16.6%
same,"viability, T/C",[5],20.2%
same,"viability, T/C",[6],20.3%
same,"viability, T/C",[7],10.2%
same,"viability, T/C",[8],9.03%
same,"viability, T/C","second compound 0.1 µM, first compound 0.00316 µM",14.6%
same,"viability, T/C","second compound 0.1 µM, first compound 0.01 µM",9.29%
same,"viability, T/C",[9],10.7%
same,"viability, T/C",[10],9.27%
same,"viability, T/C",[11],5.71%
same,"viability, T/C",[12],5.75%
same,"viability, T/C","second compound 0.316 µM, first compound 0.00316 µM",5.54%
same,"viability, T/C","second compound 0.316 µM, first compound 0.01 µM",5.26%
same,"viability, T/C",[13],4.78%
same,"viability, T/C",[14],5.36%
same,"viability, T/C",[15],4.48%
same,"viability, T/C",[16],2.79%
same,"viability, T/C","second compound 1 µM, first compound 0.00316 µM",3.22%
same,"viability, T/C","second compound 1 µM, first compound 0.01 µM",2.82%
same,"viability, T/C",[17],3.82%
same,"viability, T/C",[18],3.54%
same,"viability, T/C",[19],3.08%
same,"viability, T/C",[20],3.36%
same,"viability, T/C","second compound 3.16 µM, first compound 0.00316 µM",1.84%
same,"viability, T/C","second compound 3.16 µM, first compound 0.01 µM",2.35%
same,"viability, T/C","second compound 3.16 µM, first compound 0.0316 µM",2.16%
same,"viability, T/C","second compound 3.16 µM, first compound 0.1 µM",1.87%
same,"viability, T/C","second compound 3.16 µM, first compound 0.316 µM",2.05%
same,"viability, T/C","second compound 3.16 µM, first compound 1 µM",2.48%
same,"viability, T/C","second compound 10 µM, first compound 0.00316 µM",1.31%
same,"viability, T/C","second compound 10 µM, first compound 0.01 µM",1.46%
same,"viability, T/C","second compound 10 µM, first compound 0.0316 µM",0.83%
same,"viability, T/C","second compound 10 µM, first compound 0.1 µM",1.21%
same,"viability, T/C","second compound 10 µM, first compound 0.316 µM",1.13%
same,"viability, T/C","second compound 10 µM, first compound 1 µM",0.62%
CC1(C)CCC(Nc2ncc(C(F)(F)F)c(-c3c[nH]c4c(P(C)(C)=O)c(C#N)ccc34)n2)CN1 (stereo unspecified),"viability, T/C",compound 0.000949 µM,84% [middle of 4 runs]
same,"viability, T/C",compound 0.003 µM,59.5% [middle of 4 runs]
same,"viability, T/C",compound 0.00949 µM,30% [middle of 4 runs]
same,"viability, T/C",compound 0.03 µM,21.3% [middle of 4 runs]
same,"viability, T/C",compound 0.0949 µM,16.6% [middle of 4 runs]
same,"viability, T/C",compound 0.3 µM,16.1% [middle of 4 runs]
same,IC50,curve of compound,4.35 nM [middle of 4 runs]
NC1c2ccccc2OC12CCN(c1cnc3c(N4CCCc5ncccc54)n[nH]c3n1)CC2 (stereo unspecified) + C=CC(=O)N1CCN(c2nc(OCC3CCCN3C)nc3c(F)c(-c4nc(N)cc(C)c4C(F)(F)F)c(Cl)cc23)C(C)C1,IC50,"curve of first compound, second compound 0.00316 µM",> 10 µM
same,IC50,"curve of first compound, second compound 0.01 µM",> 10 µM
same,IC50,[1],> 10 µM
same,IC50,[2],> 10 µM
same,IC50,[3],> 10 µM
same,IC50,[4],> 10 µM
same,"viability, T/C","second compound 0.00316 µM, first compound 0.0316 µM",82.9%
same,"viability, T/C","second compound 0.00316 µM, first compound 0.1 µM",77%
same,"viability, T/C","second compound 0.00316 µM, first compound 0.316 µM",66.5%
same,"viability, T/C","second compound 0.00316 µM, first compound 1 µM",69.1%
same,"viability, T/C","second compound 0.00316 µM, first compound 3.16 µM",75.6%
same,"viability, T/C","second compound 0.00316 µM, first compound 10 µM",68.4%
same,"viability, T/C","second compound 0.01 µM, first compound 0.0316 µM",86.9%
same,"viability, T/C","second compound 0.01 µM, first compound 0.1 µM",63.1%
same,"viability, T/C","second compound 0.01 µM, first compound 0.316 µM",76.8%
same,"viability, T/C","second compound 0.01 µM, first compound 1 µM",71.9%
same,"viability, T/C","second compound 0.01 µM, first compound 3.16 µM",65.8%
same,"viability, T/C","second compound 0.01 µM, first compound 10 µM",63.8%
same,"viability, T/C",[5],83.5%
same,"viability, T/C",[6],68.8%
same,"viability, T/C",[7],76%
same,"viability, T/C",[8],65.7%
same,"viability, T/C","second compound 0.0316 µM, first compound 3.16 µM",57.7%
same,"viability, T/C","second compound 0.0316 µM, first compound 10 µM",66%
same,"viability, T/C",[9],90.7%
same,"viability, T/C",[10],70.1%
same,"viability, T/C",[11],75.9%
same,"viability, T/C",[12],64.5%
same,"viability, T/C","second compound 0.1 µM, first compound 3.16 µM",72.1%
same,"viability, T/C","second compound 0.1 µM, first compound 10 µM",70.7%
same,"viability, T/C",[13],81.2%
same,"viability, T/C",[14],70.8%
same,"viability, T/C",[15],78.9%
same,"viability, T/C",[16],70.3%
same,"viability, T/C","second compound 0.316 µM, first compound 3.16 µM",71.8%
same,"viability, T/C","second compound 0.316 µM, first compound 10 µM",71%
same,"viability, T/C",[17],79.3%
same,"viability, T/C",[18],73.3%
same,"viability, T/C",[19],77.9%
same,"viability, T/C",[20],73.1%
same,"viability, T/C","second compound 1 µM, first compound 3.16 µM",76.3%
same,"viability, T/C","second compound 1 µM, first compound 10 µM",68.4%
